In ChEMBL document CHEMBL3580661, “Structure-Guided Design of Group I Selective p21-Activated Kinase Inhibitors” (J Med Chem, 2015):
In brackets after ≈: the same amount, converted by molar mass.

Tests used:
[1] = target: T1, Serine/threonine-protein kinase PAK 1 (Homo sapiens, UniProt Q13153); assay: Inhibition of PAK1 (unknown origin)
[2] = target: T2, Serine/threonine-protein kinase PAK 4 (Homo sapiens, UniProt O96013); assay: Inhibition of human PAK4
[3] = target: T1, Serine/threonine-protein kinase PAK 1; assay: Inhibition of human recombinant PAK1 kinase domain using coumarin/fluorescein-labeled FRET peptide as substrate assessed as substrate phosphorylation at Ser/Thr19 preincubated for 10 mins followed by ATP addition measured after 60 mins by Z'-LYTE assay
[4] = target: T2, Serine/threonine-protein kinase PAK 4; assay: Inhibition of human recombinant PAK4 kinase domain using coumarin/fluorescein-labeled FRET peptide as substrate assessed as substrate phosphorylation at Ser/Thr19 preincubated for 10 mins followed by ATP addition measured after 60 mins by Z'-LYTE assay
[5] = Drug metabolism in rat liver S9 fraction assessed as N-acetyltransferase-mediated metabolite formation by measuring parent compound level at 1 uM after 60 mins in presence of acetyl CoA, NADPH; format: ADME, subcellular; settings: s9, 1 h
[6] = test system: Liver; assay: Metabolic stability in rat liver S9 fraction at 1 uM after 60 mins in absence of NADPH; format: ADME; settings: s9, 1 h
[7] = Metabolic stability in rat liver S9 fraction assessed as compound remaining at 1 uM measured at 60 mins in presence of NADPH; format: ADME, subcellular; settings: read-out: Stability
[8] = target: T1, Serine/threonine-protein kinase PAK 1; assay: Inhibition of PAK1 in human EBC1 cells assessed as inhibition of MEK phosphorylation at S298 after 2 hrs by HTRF assay; format: cell-based
[9] = Apparent permeability across apical to basolateral side in MDCK cells; format: ADME, cell-based, Canis lupus familiaris; settings: dog
[10] = Apparent permeability across basolateral to apical side in MDCK cells; format: ADME, cell-based, Canis lupus familiaris; settings: dog
[11] = test system: Rattus norvegicus; assay: Plasma clearance in rat at 2.5 mg/kg, iv administered as bolus dose; format: ADME, organism-based; settings: in vivo
[12] = test system: Mus musculus; assay: Plasma clearance in mouse at 2 mg/kg, iv administered as bolus dose; format: ADME, organism-based; settings: in vivo
[13] = Lipophilicity, log D of the compound; format: physicochemical; settings: octanol/water
[14] = Kinetic solubility of the compound; format: physicochemical; settings: read-out: Kinetic_solubility
[15] = test system: Liver; assay: Metabolic stability in rat liver S9 fraction at 1 uM after 60 mins in presence of NADPH; format: ADME, subcellular; settings: s9, 1 h
[16] = test system: Hepatocyte; assay: Drug uptake in mouse hepatocytes; format: ADME, cell-based
[17] = Plasma clearance in rat at 2 mg/kg, iv administered as bolus dose; format: ADME, organism-based
[18] = Drug metabolism in rat liver S9 fraction assessed as glucuronide metabolite formation at 1 uM in presence of UDPGA; format: ADME, subcellular; settings: s9, 1 µM
[19] = Drug metabolism in rat liver S9 fraction assessed as N-acetyltransferase-mediated metabolite formation by measuring parent compound level at 1 uM after 80 mins in presence of acetyl CoA, NADPH; format: ADME, subcellular; settings: s9, 80 min
[20] = Drug metabolism in rat liver S9 fraction assessed as oxidative metabolite formation by measuring parent compound level at 1 uM measured over 60 mins in presence of NADPH; format: ADME, subcellular; settings: s9, 1 h
[21] = Lipophilicity, log D of the compound at pH 7.4; format: physicochemical; settings: buffer
[22] = Drug metabolism in rat liver S9 fraction assessed as N-acetyltransferase-mediated metabolite formation at 1 uM measured over 60 mins in presence of acetyl CoA, NADPH; format: ADME, subcellular; settings: s9, 1 h
[23] = Plasma protein binding in rat; format: ADME, cell-free; settings: read-out: PPB (converted)
[24] = Plasma clearance in rat at 1 mg/kg, iv administered as bolus dose; format: ADME, organism-based
[25] = Oral bioavailability in rat at 5 mg/kg; format: ADME, organism-based; settings: in vivo
[26] = target: T3, Aurora kinase A (Homo sapiens, UniProt O14965); assay: Inhibition of aurora A (unknown origin)
T3 sequence (O14965 whole entry): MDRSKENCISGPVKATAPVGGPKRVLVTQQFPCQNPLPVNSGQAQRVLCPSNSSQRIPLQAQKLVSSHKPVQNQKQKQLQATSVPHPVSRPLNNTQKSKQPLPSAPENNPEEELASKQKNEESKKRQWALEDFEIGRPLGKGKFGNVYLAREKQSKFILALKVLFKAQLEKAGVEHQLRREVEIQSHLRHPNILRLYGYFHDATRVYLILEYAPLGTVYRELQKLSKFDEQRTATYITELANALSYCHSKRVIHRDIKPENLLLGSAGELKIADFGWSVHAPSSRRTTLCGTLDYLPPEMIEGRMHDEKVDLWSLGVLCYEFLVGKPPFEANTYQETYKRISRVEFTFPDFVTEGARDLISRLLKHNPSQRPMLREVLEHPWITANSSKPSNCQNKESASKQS

T2 sequence (O96013 whole entry, the tested form may be a part): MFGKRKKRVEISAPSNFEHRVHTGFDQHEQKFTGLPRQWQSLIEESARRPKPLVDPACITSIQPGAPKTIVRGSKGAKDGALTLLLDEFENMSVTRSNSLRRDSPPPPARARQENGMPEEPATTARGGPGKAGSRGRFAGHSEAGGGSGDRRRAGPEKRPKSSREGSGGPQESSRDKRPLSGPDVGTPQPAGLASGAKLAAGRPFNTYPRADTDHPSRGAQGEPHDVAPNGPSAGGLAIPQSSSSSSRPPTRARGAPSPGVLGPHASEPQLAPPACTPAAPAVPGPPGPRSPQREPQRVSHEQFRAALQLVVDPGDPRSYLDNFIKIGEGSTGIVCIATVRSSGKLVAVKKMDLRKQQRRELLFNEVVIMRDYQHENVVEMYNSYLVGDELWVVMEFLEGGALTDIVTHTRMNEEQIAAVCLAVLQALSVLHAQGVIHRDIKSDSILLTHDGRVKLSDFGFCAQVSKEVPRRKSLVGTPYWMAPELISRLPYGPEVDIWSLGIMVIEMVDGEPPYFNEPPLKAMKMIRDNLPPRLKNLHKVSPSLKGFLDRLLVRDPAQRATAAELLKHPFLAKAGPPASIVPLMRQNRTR
T1 sequence (Q13153 whole entry): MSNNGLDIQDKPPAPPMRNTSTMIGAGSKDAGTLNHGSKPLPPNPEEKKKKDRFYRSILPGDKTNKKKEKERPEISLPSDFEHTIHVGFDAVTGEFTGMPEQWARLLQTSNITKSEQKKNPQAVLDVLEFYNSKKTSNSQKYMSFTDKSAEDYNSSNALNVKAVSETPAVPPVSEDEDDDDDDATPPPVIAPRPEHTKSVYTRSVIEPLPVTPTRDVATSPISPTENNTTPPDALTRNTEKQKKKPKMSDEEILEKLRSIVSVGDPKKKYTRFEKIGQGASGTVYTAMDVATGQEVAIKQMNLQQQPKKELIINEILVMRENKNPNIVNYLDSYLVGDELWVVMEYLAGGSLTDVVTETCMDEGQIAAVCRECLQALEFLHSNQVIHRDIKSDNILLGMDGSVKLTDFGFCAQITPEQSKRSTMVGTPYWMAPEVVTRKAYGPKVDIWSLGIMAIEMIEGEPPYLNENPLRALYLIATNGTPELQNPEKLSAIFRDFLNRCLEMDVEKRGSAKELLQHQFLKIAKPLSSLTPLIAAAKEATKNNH

Compound: N[C@@H]1[C@H]2CN(c3nc(Nc4cc(C5CC5)[nH]n4)c4sccc4n3)C[C@@H]12
- Ki [1]: 50 nM
- Ki [2]: 2 nM

Compound: CC1CCN(c2nc(Nc3cc(C4CC4)n[nH]3)c3ccccc3n2)CC1
- Ki [1]: 100 nM
- Ki [2]: 49 nM

Compound: NC1CCN(c2nc(Nc3cc(C4CC4)[nH]n3)c3sccc3n2)CC1
- Ki [3]: 22 nM
- Ki [4]: 12 nM
- Stability [5]: < 1%
- Stability [6]: Stable
- remaining at 1 h, 1 µM [7]: 51%

Compound: Cc1cc(Nc2nc(N3CCC(N)CC3)nc3ccsc23)n[nH]1
- Ki [3]: 179 nM

Compound: CCc1cc(Nc2nc(N3CCC(N)CC3)nc3ccsc23)n[nH]1
- Ki [3]: 33 nM

Compound: CCCc1cc(Nc2nc(N3CCC(N)CC3)nc3ccsc23)n[nH]1
- Ki [3]: 48 nM

Compound: CC(C)c1cc(Nc2nc(N3CCC(N)CC3)nc3ccsc23)n[nH]1
- Ki [3]: 33 nM

Compound: NC1CCN(c2nc(Nc3cc(C4CCC4)[nH]n3)c3sccc3n2)CC1
- Ki [3]: 18 nM

Compound: NC1CCN(c2nc(Nc3cc(-c4ccccc4)[nH]n3)c3sccc3n2)CC1
- Ki [3]: 660 nM

Compound: NC1CCN(c2nc(Nc3cc(C4CC4)[nH]n3)c3occc3n2)CC1
- Ki [3]: 119 nM
- Ki [4]: 45 nM

Compound: NC1CCN(c2nccc(Nc3cc(C4CC4)[nH]n3)n2)CC1
- Ki [3]: 454 nM
- Ki [4]: 283 nM

Compound: NC1CCN(c2cccc(Nc3cc(C4CC4)[nH]n3)n2)CC1
- Ki [3]: 561 nM
- Ki [4]: 612 nM

Compound: NC1CCN(c2cc(Nc3cc(C4CC4)[nH]n3)ccn2)CC1
- Ki [3]: 4390 nM
- Ki [4]: 1820 nM

Compound: c1cc(Nc2cc(C3CC3)[nH]n2)nc(NCC2CCNCC2)n1
- Ki [3]: 245 nM
- Ki [4]: 80 nM

Compound: N[C@H]1CC[C@H](Nc2nccc(Nc3cc(C4CC4)[nH]n3)n2)CC1
- Ki [3]: 157 nM
- Ki [4]: 100 nM

Compound: N[C@H]1CC[C@H](CNc2nccc(Nc3cc(C4CC4)[nH]n3)n2)CC1
- Ki [3]: 26 nM
- Ki [4]: 38 nM
- IC50 [8]: 2200 nM
- Papp A→B [9]: 0.5 ×10⁻⁶ cm/s
- Papp B→A [10]: 2 ×10⁻⁶ cm/s
- clearance [11]: 158 mL/min/kg
- clearance [12]: 83 mL/min/kg
- logD [13]: -0.2
- solubility kinetic [14]: 149 µM (≈ 48.9 µg/mL)
- Stability [5]: 69.3%
- Stability [6]: Stable
- Stability [15]: Stable
- Drug uptake [16]: Active

Compound: N[C@H]1CC[C@@H](CNc2nccc(Nc3cc(C4CC4)[nH]n3)n2)CC1
- Ki [3]: 21 nM
- Ki [4]: 4 nM

Compound: Nc1ccc(CNc2nccc(Nc3cc(C4CC4)[nH]n3)n2)cn1
- Ki [3]: 138 nM
- Ki [4]: 563 nM
- clearance [17]: 122 mL/min/kg
- Drug metabolism [18]: metabolite_notdetected
- Stability [19]: 50%
- Stability [20]: 60%

Compound: CNc1ccc(CNc2nccc(Nc3cc(C4CC4)[nH]n3)n2)cn1
- Ki [3]: 346 nM
- Ki [4]: 610 nM

Compound: CN(C)c1ccc(CNc2nccc(Nc3cc(C4CC4)[nH]n3)n2)cn1
- Ki [3]: 1470 nM
- Ki [4]: 907 nM

Compound: c1cc(Nc2cc(C3CC3)[nH]n2)nc(NCc2ccc3[nH]ccc3c2)n1
- Ki [3]: 27 nM
- Ki [4]: 144 nM
- clearance [17]: 30.1 mL/min/kg
- logD [21]: 3

Compound: C[C@H](Nc1nccc(Nc2cc(C3CC3)[nH]n2)n1)c1ccc2[nH]ccc2c1
- Ki [3]: 31 nM
- Ki [4]: 42 nM
- IC50 [8]: 120 nM
- clearance [17]: 30 mL/min/kg

Compound: c1cc(Nc2cc(C3CC3)[nH]n2)nc(NCc2ccc3[nH]cnc3c2)n1
- Ki [3]: 117 nM
- Ki [4]: 961 nM
- clearance [17]: 24.1 mL/min/kg
- Drug metabolism [22]: metabolite_notdetected
- logD [21]: 2.5

Compound: Cn1cnc2cc(CNc3nccc(Nc4cc(C5CC5)[nH]n4)n3)ccc21
- Ki [3]: 607 nM
- Ki [4]: 1660 nM

Compound: Cn1cnc2ccc(CNc3nccc(Nc4cc(C5CC5)[nH]n4)n3)cc21
- Ki [3]: 584 nM
- Ki [4]: 1900 nM

Compound: C[C@H](Nc1nccc(Nc2cc(C3CC3)[nH]n2)n1)c1ccc2[nH]cnc2c1
- Ki [3]: 12 nM
- Ki [4]: 106 nM
- IC50 [8]: 281 nM
- Papp A→B [9]: 0.9 ×10⁻⁶ cm/s
- Papp B→A [10]: 6.8 ×10⁻⁶ cm/s
- clearance [17]: 20.3 mL/min/kg
- fraction unbound [23]: 0.011

Compound: Fc1c(CNc2nccc(Nc3cc(C4CC4)[nH]n3)n2)ccc2[nH]cnc12
- Ki [3]: 179 nM
- Ki [4]: 1110 nM

Compound: Clc1c(CNc2nccc(Nc3cc(C4CC4)[nH]n3)n2)ccc2[nH]cnc12
- Ki [3]: 5 nM
- Ki [4]: 455 nM
- IC50 [8]: 362 nM
- Papp A→B [9]: 2.8 ×10⁻⁶ cm/s
- Papp B→A [10]: 6.3 ×10⁻⁶ cm/s
- clearance [24]: 6.4 mL/min/kg
- fraction unbound [23]: 0.002

Compound: CN(Cc1ccc2[nH]cnc2c1Cl)c1nccc(Nc2cc(C3CC3)[nH]n2)n1
- Ki [3]: 4 nM
- IC50 [8]: 110 nM
- Papp A→B [9]: 1.9 ×10⁻⁶ cm/s
- Papp B→A [10]: 18 ×10⁻⁶ cm/s
- clearance [24]: 67 mL/min/kg
- bioavailability [25]: 12%
- fraction unbound [23]: 0.011

Compound: CCN(Cc1ccc2[nH]cnc2c1Cl)c1nccc(Nc2cc(C3CC3)[nH]n2)n1
- Ki [3]: 5 nM
- Ki [4]: 547 nM
- IC50 [8]: 85 nM
- Papp A→B [9]: 7.4 ×10⁻⁶ cm/s
- Papp B→A [10]: 11.1 ×10⁻⁶ cm/s
- clearance [24]: 61 mL/min/kg
- Ki [26]: 5.3 nM
- fraction unbound [23]: 0.007

Compound: C[C@@H](Nc1nccc(Nc2cc(C3CC3)[nH]n2)n1)c1ccc2[nH]ccc2c1
- Ki [3]: 1900 nM
